In patent US6512136B1, “Substituted 2-phenyl-1-(3,4-dihydroxy-5-nitrophenyl)-1-ethanones, their use in the treatment of some central and peripheral nervous system disorders and pharmaceutical compositions containing them” (Portela & C.A., S.A., priority 1998, dated 2003):

T1: rat brain COMT (Rattus norvegicus, UniProt P22734)
T1 construct: Aliquots of 0.5 ml of liver and whole brain homogenates were preincubated; from tissue; host or cells: whole brain homogenate of male Wistar rats
T1 sequence (P22734 1-264): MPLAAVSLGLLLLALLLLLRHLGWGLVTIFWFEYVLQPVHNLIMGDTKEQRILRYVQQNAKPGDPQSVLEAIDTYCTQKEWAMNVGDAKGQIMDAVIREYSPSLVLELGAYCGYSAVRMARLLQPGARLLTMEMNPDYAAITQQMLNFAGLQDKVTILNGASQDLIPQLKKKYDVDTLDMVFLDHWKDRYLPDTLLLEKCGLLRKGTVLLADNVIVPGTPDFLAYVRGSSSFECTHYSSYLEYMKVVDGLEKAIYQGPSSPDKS

T2: brain COMT (Rattus norvegicus, UniProt P22734)
T2 construct: Aliquots of 0.5 ml of liver and whole brain homogenates were preincubated; from tissue; host or cells: whole brain homogenate of male Wistar rats
T2 sequence (P22734 1-264): T1 sequence (P22734 1-264)

T3: rat liver COMT (Rattus norvegicus, UniProt P22734)
T3 construct: Aliquots of 0.5 ml of liver and whole brain homogenates were preincubated; from tissue; host or cells: liver homogenate of male Wistar rats
T3 sequence (P22734 44-264 limits assumed): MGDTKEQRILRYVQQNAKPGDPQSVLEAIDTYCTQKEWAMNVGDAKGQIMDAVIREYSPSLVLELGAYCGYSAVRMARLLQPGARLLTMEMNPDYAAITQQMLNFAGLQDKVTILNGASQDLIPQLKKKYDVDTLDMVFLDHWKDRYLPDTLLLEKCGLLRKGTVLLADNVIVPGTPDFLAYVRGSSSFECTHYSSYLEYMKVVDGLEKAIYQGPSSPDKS

T4: liver COMT (Rattus norvegicus, UniProt P22734)
T4 construct: Aliquots of 0.5 ml of liver and whole brain homogenates were preincubated; from tissue; host or cells: liver homogenate of male Wistar rats
T4 sequence (P22734 44-264 limits assumed): T3 sequence (P22734 44-264 limits assumed)

B1: rat brain COMT (Rattus norvegicus) (protein)
chain: T1 sequence (P22734 1-264)
B2: rat liver COMT (Rattus norvegicus) (protein)
chain: T3 sequence (P22734 44-264 limits assumed)

Tests used:
rats = assay: Behavioural testing: potentiation of amphetamine-induced hyperactivity (locomotor activity, stereotypies); format: in vivo, rat; settings: for pattern of locomotor activity and stereotyped behaviour versus corresponding controls: given p.o. six hours before amphetamine challenge (0.5, 2.0, 4.0 mg/kg s.c.)
rat brain COMT = biological target: T1, rat brain COMT; assay: In vitro COMT inhibition, rat brain homogenate (methylation of adrenaline to metanephrine); format: biochemical
brain COMT = biological target: T2, brain COMT; assay: Brain COMT activity in homogenates after administration of test compounds by gastric tube; format: in vivo; settings: for % inhibition of COMT activity, brain, 0.5 h / % inhibition of COMT activity, brain, 1 h / % inhibition of COMT activity, brain, 3 h / % inhibition of COMT activity, brain, 6 h / % inhibition of COMT activity, brain, 9 h: rat brain homogenate, mean ± S.E.M., n=4; for % inhibition of COMT activity, brain, 0.5 h: 0.5 h after administration by gastric tube; for % inhibition of COMT activity, brain, 1 h: 1 h after administration by gastric tube; for % inhibition of COMT activity, brain, 3 h: 3 h after administration by gastric tube; for % inhibition of COMT activity, brain, 6 h: 6 h after administration by gastric tube; for % inhibition of COMT activity, brain, 9 h: 9 h after administration by gastric tube
rat liver COMT = biological target: T3, rat liver COMT; assay: In vitro COMT inhibition, rat liver homogenate (methylation of adrenaline to metanephrine); format: biochemical
liver COMT = biological target: T4, liver COMT; assay: Liver COMT activity in homogenates after administration of test compounds by gastric tube; format: in vivo; settings: for % inhibition of COMT activity, liver, 0.5 h / % inhibition of COMT activity, liver, 1 h / % inhibition of COMT activity, liver, 3 h / % inhibition of COMT activity, liver, 6 h / % inhibition of COMT activity, liver, 9 h: rat liver homogenate, mean ± S.E.M., n=4; for % inhibition of COMT activity, liver, 0.5 h: 0.5 h after administration by gastric tube; for % inhibition of COMT activity, liver, 1 h: 1 h after administration by gastric tube; for % inhibition of COMT activity, liver, 3 h: 3 h after administration by gastric tube; for % inhibition of COMT activity, liver, 6 h: 6 h after administration by gastric tube; for % inhibition of COMT activity, liver, 9 h: 9 h after administration by gastric tube
[1] = literature values (Dingemanse 1995; Keranen 1994); cited from earlier work
[2] = substrate: CNCC(O)c1ccc(O)c(O)c1; assay: cells, lysate or membranes named; settings: saturation experiments, 95% confidence intervals, pH 7.8
[3] = COMT inhibitor 30 mg/kg p.o. 6 h before amphetamine challenge (s.c.)

| Molecule | IC50 (rat brain COMT) | % inhibition of COMT activity, brain, 0.5 h (brain COMT) | % inhibition of COMT activity, brain, 1 h (brain COMT) | % inhibition of COMT activity, brain, 3 h (brain COMT) | % inhibition of COMT activity, brain, 6 h (brain COMT) | % inhibition of COMT activity, brain, 9 h (brain COMT) | IC50 (rat liver COMT) | % inhibition of COMT activity, liver, 0.5 h (liver COMT) | % inhibition of COMT activity, liver, 1 h (liver COMT) | % inhibition of COMT activity, liver, 3 h (liver COMT) | % inhibition of COMT activity, liver, 6 h (liver COMT) | % inhibition of COMT activity, liver, 9 h (liver COMT) | further results |
| --- | --- | --- | --- | --- | --- | --- | --- | --- | --- | --- | --- | --- | --- |
| CC(N)Cc1ccccc1 (centres unmarked) [amphetamine] | – | – | – | – | – | – | – | – | – | – | – | – | duration of stereotypies during the 600 s observation period (rats; amphetamine 4.0 mg/kg s.c. alone): 250 s; horizontal activity and rearing (rats; amphetamine 0.5 and 2.0 mg/kg s.c. alone): dose-dependent increases |
| O=C(CCCc1ccccc1)c1cc(O)c(O)c([N+](=O)[O-])c1 [D] | 2.9 nM | 85.1 ± 1.7% | 69.3 ± 5.1% | 33.5 ± 4.4% | 26.7 ± 4.0% | 12.2 ± 5.8% | 1850 nM | 97.5 ± 0.1% | 95.3 ± 0.8% | 67.5 ± 7.8% | 52.0 ± 9.5% | 39.0 ± 13.2% | – |
| O=C(CCCCc1ccccc1)c1cc(O)c(O)c([N+](=O)[O-])c1 [E] | 6.7 nM | 87.4 ± 1.3% | 74.2 ± 4.2% | 25.0 ± 3.1% | −5.6 ± 7.5% | −6.7 ± 5.0% | 1280 nM | 99.2 ± 0.1% | 98.9 ± 0.3% | 88.1 ± 3.9% | 36.0 ± 6.3% | −4.0 ± 8.0% | inhibitory profile on brain versus liver COMT after oral administration (liver COMT; rat, comparison of brain and liver COMT inhibition (Table 2)): much more potent upon liver COMT than brain COMT |
| O=C(CCc1ccccc1)c1cc(O)c(O)c([N+](=O)[O-])c1 [C] | 3.1 nM | 89.9 ± 0.7% | 86.2 ± 0.5% | 59.8 ± 5.8% | 33.4 ± 7.0% | 0.4 ± 5.3% | 829 nM | 98.4 ± 0.3% | 97.8 ± 0.2% | 95.0 ± 0.7% | 70.8 ± 12.8% | 39.9 ± 11.1% | – |
| O=C(c1ccccc1)c1cc(O)c(O)c([N+](=O)[O-])c1 [Compound A, 3,4-dihydroxy-5-nitrobenzophenone] | 7.1 nM | 96.3 ± 0.4% | 96.8 ± 0.3% | 97.0 ± 0.3% | 85.8 ± 7.5% | 34.9 ± 6.0% | 935 nM | 99.0 ± 0.2% | 98.7 ± 0.2% | 96.9 ± 2.5% | 80.5 ± 7.3% | 31.7 ± 5.5% | – |
| O=C(Cc1ccccc1)c1cc(O)c(O)c([N+](=O)[O-])c1 [Compound B, 1-(3,4-Dihydroxy-5-nitrophenyl)-2-phenyl-1-ethanone] | – | – | – | – | – | – | – | – | – | – | – | – | pattern of locomotor activity and stereotyped behaviour versus corresponding controls (rats): same pattern of locomotor activity and stereotyped behaviour as their corresponding controls |
| CCN(CC)C(=O)/C(C#N)=C/c1cc(O)c(O)c([N+](=O)[O-])c1 [Entacapone, (E)-2-cyano-N,N-diethyl-3-(3,4-dihydroxy-5-nitrophenyl)acrylamide] | – | – | – | – | – | – | – | – | – | – | – | – | pattern of locomotor activity and stereotyped behaviour versus corresponding controls (rats): same pattern of locomotor activity and stereotyped behaviour as their corresponding controls |
| Cc1ccc(C(=O)c2cc(O)c(O)c([N+](=O)[O-])c2)cc1 [Tolcapone, 3,4-dihydroxy4′-methyl-5-nitrobenzophenone, reference compound] | – | 98.9 ± 0.1% | 98.7 ± 0.2% | 97.0 ± 0.5% | 85.8 ± 8.2% | 77.5 ± 1.8% | – | 100.0 ± 0.0% | 99.9 ± 0.1% | 98.0 ± 0.7% | 94.1 ± 0.3% | 67.0 ± 4.0% | inhibition in brain and liver COMT at 6 h and 9 h after administration (brain COMT; rat, oral, 6 h and 9 h, brain and liver): marked inhibition; ED50 (brain COMT; rat, po, read-out: ED50 for inhibiting brain COMT): 1.6 ± 0.1 mg/kg; duration of stereotyped behavior in rats given 4.0 mg/kg amphetamine (rats; [3]): increased two-fold; locomotor activity in rats given 4.0 mg/kg amphetamine (rats; [3]): marked decrease in locomotor activity; locomotor activity in rats treated with 0.5 and 2.0 mg/kg amphetamine (rats; [3]): significantly increase locomotor activity; half-life [1]: 2 h; ED50 (liver COMT; rat, po, read-out: ED50 for inhibiting liver COMT): 0.7 ± 0.1 mg/kg |
| CNCC(O)c1ccc(O)c(O)c1 (centres unmarked) [adrenaline, reference compound] | – | – | – | – | – | – | – | – | – | – | – | – | Vmax of adrenaline O-methylation, brain (rat brain COMT; whole brain homogenate, saturation experiments): 1.35±0.02 nmol mg protein^−1 h^−‘; Vmax of adrenaline O-methylation, liver (rat liver COMT; liver homogenate, saturation experiments): 61.6±3.8 nmol mg protein^−1 h^−‘ |
| B1 | – | – | – | – | – | – | – | – | – | – | – | – | Km ([2]; other: whole brain homogenate): 0.7 µM |
| B2 | – | – | – | – | – | – | – | – | – | – | – | – | Km ([2]; other: liver homogenate): 238.5 (128.5; 348.5) μM |
